B1: Sit1D: Protein encoded by S. pneumoniae gene Sit1D (SEQ ID NO. 8), putative iron-binding lipoprotein; His-tagged, expressed in E. coli (protein, listed as Salmonella pneumoniae)
chain: MKTSLKLYFTALVASFLLLLGACSTNSSTSQTETSSSAPTEVTIKSSLDEVKLSKVPEKIVTFDLGAADTIRALGFEKNIVGMPTKTVPTYLKDLVGTVKNVGSMKEPDLEAIAALEPDLIIASPRTQKFVDKFKEIAPTVLFQASKDDYWTSTKANIESLASAFGETGTQKAKEELTKLDKSIQEVATKNESSDKKALAILLNEGKMAAFGAKSRFSFLYQTLKFKPTDTKFEDSRHGQEVSFESVKEINPDILFVINRTLAIGGDNSSNDGVLENALIAETPAAKNGKIIQLTPDLWYLSGGGLESTKLMIEDIQKALK
modifications: His tag; CDS (1)..(966)
notes: His-tagged, expressed in E. coli

Columns and labels:
[1] = tested on: S. pneumoniae strains; assay: Streptonigrin bacterial survival assay; type: cell-based; conditions: 60 minutes incubation with 2.5 μg ml^-1 streptonigrin
Procedure: (§1) For bacterial survival streptonigrin assays, stocks of S. pneumoniae strains grown in Chelex-THY broth and stored at −70° C. were defrosted on ice, pelleted by centrifugation at 20000 g at 4° C. and resuspended in THY to which 2.5 μg ml^−1 of streptonigrin (Sigma) was then added. The reactions were incubated at 37° C., and aliquots of the reaction cultures taken at 40 and 60 minutes after adding streptonigrin were diluted and plated. Cfu at each time point were expressed as a percentage of the cfu prior to adding streptonigrin and the results presented as a ratio of the wild-type strain's results. To assess sensitivity to streptonigrin discs, S. pneumoniae strain stocks cultured in Chelex-THY broth were plated on RPMIm plates with or without 50 μM FeCl3 and 400 μM DIP supplementation at a density of several thousand colonies per plate. Antibiotic discs impregnated with 5 μg streptonigrin were placed onto the plates. After incubation for 20 hours at 37° C. in 5% CO2, the width of the zone of growth inhibition surrounding each disc was measured and confidence intervals for three separate results calculated.

[2] = tested on: S. pneumoniae strains; assay: Streptonigrin disc sensitivity (zone of growth inhibition); type: cell-based
Procedure: as §1

[3] = tested on: S. pneumoniae; assay: Sit1D and Sit2A immunisation experiment with IP S. pneumoniae challenge; type: in vivo; conditions: BALBc mice, 10 ug protein IP three times, challenged IP with 10,000 S. pneumoniae cells
Procedure: BALBc were mice given 10 ug of protein (expressed in pQE30 expression vectors in E. coli and purified using the His-tag) via IP, on three occasions separated by 7-10 days, and then challenged 2 weeks after the last immunisation with 10,000 S. pneumoniae cells inoculated IP.
The other proteins were Sit1D, Sit2A, Sit1D combined with Sit2A, Sit1D combined with Pdb, and Sit2A combined with Pbd.

Molecule	fold more cells surviving than wild type cells ([1]; Sit1A- strain)	fold more cells surviving than wild type cells ([1]; Sit1A-/Sit2A- strain)	fold more cells surviving than wild type cells ([1]; Sit2A- strain)	sensitivity to 5 ug streptonigrin discs ([2]; Sit1A-/Sit2A- double mutant, in the presence of 400 μM DIP)	zone of growth inhibition surrounding a streptonigrin disc, versus wild-type strain ([2]; Sit- strains on RPMIm plates)	protection against S. pneumoniae challenge (survival, FIG. 7) [3]
COC1=C(N)C(=O)c2nc(-c3nc(C(=O)O)c(C)c(-c4ccc(OC)c(OC)c4O)c3N)ccc2C1=O [streptonigrin]	Approximately 10 fold	~1000 fold	Approximately 10 fold	completely resistant	smaller	
B1						as protective as Pdb

Source: patent US20090280141A1, “Streptococcal Genes” (priority 2000, published 2009)
